Results: patent US11149023B2, “Substituted triazole derivatives and uses thereof” (Bayer Pharma Aktiengesellschaft, priority 2017, dated 2021)

Experiments:
[1] = target: human V1a receptor (Homo sapiens (Human), UniProt P37288); test: Cellular in vitro assay for determining vasopressin receptor activity (V1a, aequorin luminescence); format: cell-based; conditions: for IC50: CHO cell line transfected with human V1a receptor, [Arg8]-vasopressin at EC50 concentration, read-out: IC50 hV1a; for ratio IC50 hV2/hV1a: selectivity, IC50 hV2 divided by IC50 hV1a
Sequence of human V1a receptor (P37288 whole entry): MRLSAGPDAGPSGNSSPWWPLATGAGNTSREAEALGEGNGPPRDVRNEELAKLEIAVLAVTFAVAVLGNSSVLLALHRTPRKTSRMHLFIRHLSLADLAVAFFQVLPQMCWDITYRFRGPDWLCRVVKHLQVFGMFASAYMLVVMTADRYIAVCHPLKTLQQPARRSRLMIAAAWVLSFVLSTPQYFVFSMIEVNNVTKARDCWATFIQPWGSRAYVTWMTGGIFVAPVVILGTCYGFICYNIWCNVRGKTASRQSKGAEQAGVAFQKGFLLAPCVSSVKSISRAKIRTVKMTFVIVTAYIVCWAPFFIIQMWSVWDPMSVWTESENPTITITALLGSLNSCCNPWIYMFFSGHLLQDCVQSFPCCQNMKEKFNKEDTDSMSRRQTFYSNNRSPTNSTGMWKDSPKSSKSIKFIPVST

[2] = target: human V2 receptor (Homo sapiens (Human), UniProt P30518); test: Cellular in vitro assay for determining vasopressin receptor activity (V2, CRE-luciferase); format: cell-based; conditions: CHO cell line transfected with human V2 receptor; [Arg8]-vasopressin at EC50 concentration; read-out: IC50 hV2
Sequence of human V2 receptor (P30518 whole entry): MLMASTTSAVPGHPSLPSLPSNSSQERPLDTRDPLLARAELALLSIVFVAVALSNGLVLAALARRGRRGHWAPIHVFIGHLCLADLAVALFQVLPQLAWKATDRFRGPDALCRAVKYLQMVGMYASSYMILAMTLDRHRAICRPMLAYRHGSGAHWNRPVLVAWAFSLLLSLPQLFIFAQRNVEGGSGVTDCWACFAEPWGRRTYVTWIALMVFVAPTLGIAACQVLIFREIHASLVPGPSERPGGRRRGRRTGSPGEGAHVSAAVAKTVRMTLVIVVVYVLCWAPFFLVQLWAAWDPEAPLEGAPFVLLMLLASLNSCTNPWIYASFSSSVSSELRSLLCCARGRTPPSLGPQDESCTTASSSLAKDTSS

Row | IC50 [1] [µM] | IC50 [2] [µM] | ratio IC50 hV2/hV1a [1] | Compound
1 | 0.235 | 2.3 | – | CS(=O)(=O)CC(=O)NC(Cn1c(-c2ccc(Cl)cc2)nn(Cc2ncn(-c3ncccc3Cl)n2)c1=O)C(F)(F)F (single isomer, unassigned) [Example 45, N-{3-[3-(4-Chlorophenyl)-1-{[1-(3-chloropyridin-2-yl)-1H-1,2,4-triazol-3-yl]methyl}-5-oxo-1,5-dihydro-4H-1,2,4-triazol-4-yl]-1,1,1-trifluoropropan-2-yl}-2-(methylsulfonyl)acetamide]
2 | 0.00135 | 0.0578 | – | CS(=O)(=O)CC(=O)NC(Cn1c(-c2ccc(Cl)cc2)nn(Cc2ncn(-c3ncccc3Cl)n2)c1=O)C(F)(F)F (single isomer, unassigned) [Example 46, N-{3-[3-(4-Chlorophenyl)-1-{[1-(3-chloropyridin-2-yl)-1H-1,2,4-triazol-3-yl]methyl}-5-oxo-1,5-dihydro-4H-1,2,4-triazol-4-yl]-1,1,1-trifluoropropan-2-yl}-2-(methylsulfonyl)acetamide]
3 | 0.0405 | 2.4 | 59.3 | O=C1NCC(C(=O)NC(Cn2c(-c3ccc(Cl)cc3)nn(Cc3ncn(-c4ncccc4Cl)n3)c2=O)C(F)(F)F)N1 (centres unmarked) [Example 2]
4 | 0.0041 | 0.445 | 108.5 | O=C(NC(Cn1c(-c2ccc(Cl)cc2)nn(Cc2ncn(-c3ncccc3Cl)n2)c1=O)C(F)(F)F)C1CCO1 (centres unmarked) [Example 3, N-{3-[3-(4-Chlorophenyl)-1-{[1-(3-chloropyridin-2-yl)-1H-1,2,4-triazol-3-yl]methyl}-5-oxo-1,5-dihydro-4H-1,2,4-triazol-4-yl]-1,1,1-trifluoropropan-2-yl}oxetane-2-carboxamide]
5 | 0.00165 | 0.13 | 78.8 | O=C(NC(Cn1c(-c2ccc(Cl)cc2)nn(Cc2ncn(-c3ncccc3Cl)n2)c1=O)C(F)(F)F)C1CC1(F)F (centres unmarked) [Example 7, N-{3-[3-(4-Chlorophenyl)-1-{[1-(3-chloropyridin-2-yl)-1H-1,2,4-triazol-3-yl]methyl}-5-oxo-1,5-dihydro-4H-1,2,4-triazol-4-yl]-1,1,1-trifluoropropan-2-yl}-2,2-difluorocyclopropanecarboxamide]
6 | 0.0061 | 0.365 | 59.8 | CC(F)C(=O)NC(Cn1c(-c2ccc(Cl)cc2)nn(Cc2ncn(-c3ncccc3Cl)n2)c1=O)C(F)(F)F (centres unmarked) [Example 10]
7 | 0.0225 | 0.56 | 24.9 | O=C(NC(Cn1c(-c2ccc(Cl)cc2)nn(Cc2ncn(-c3ncccc3Cl)n2)c1=O)C(F)(F)F)C1CC1F (centres unmarked) [Example 12, N-{3-[3-(4-Chlorophenyl)-1-{[1-(3-chloropyridin-2-yl)-1H-1,2,4-triazol-3-yl]methyl}-5-oxo-1,5-dihydro-4H-1,2,4-triazol-4-yl]-1,1,1-trifluoropropan-2-yl}-2-fluorocyclopropanecarboxamide]
8 | 0.0025 | 0.0335 | 13.4 | O=C(NC(Cn1c(-c2ccc(Cl)cc2)nn(Cc2ncn(-c3ncccc3Cl)n2)c1=O)C(F)(F)F)C1CC1C(F)(F)F (centres unmarked) [Example 18, N-{3-[3-(4-Chlorophenyl)-1-{[1-(3-chloropyridin-2-yl)-1H-1,2,4-triazol-3-yl]methyl}-5-oxo-1,5-dihydro-4H-1,2,4-triazol-4-yl]-1,1,1-trifluoropropan-2-yl}-2-(trifluoromethyl)cyclopropanecarboxamide]
9 | 0.00101 | 0.0725 | – | CC(C)(C)OC(=O)N1CCC(C(=O)NC(Cn2c(-c3ccc(Cl)cc3)nn(Cc3ncn(-c4ncccc4Cl)n3)c2=O)C(F)(F)F)C1 (centres unmarked) [Example 23, tert-Butyl 3-({3-[3-(4-chlorophenyl)-1-{[1-(3-chloropyridin-2-yl)-1H-1,2,4-triazol-3-yl]methyl}-5-oxo-1,5-dihydro-4H-1,2,4-triazol-4-yl]-1,1,1-trifluoropropan-2-yl}carbamoyl)pyrrolidine-1-carboxylate]
10 | 0.0044 | 0.708 | 160.8 | O=C(NC(Cn1c(-c2ccc(Cl)cc2)nn(Cc2ncn(-c3ncccc3Cl)n2)c1=O)C(F)(F)F)C1CCNC1 (centres unmarked) [Example 24, N-{3-[3-(4-Chlorophenyl)-1-{[1-(3-chloropyridin-2-yl)-1H-1,2,4-triazol-3-yl]methyl}-5-oxo-1,5-dihydro-4H-1,2,4-triazol-4-yl]-1,1,1-trifluoropropan-2-yl}pyrrolidine-3-carboxamide]
11 | 0.00185 | 0.0225 | – | CC(C)(C)OC(=O)NC1(C(=O)NC(Cn2c(-c3ccc(Cl)cc3)nn(Cc3ncn(-c4ncccc4Cl)n3)c2=O)C(F)(F)F)CCC1 (centres unmarked) [Example 28, tert-Butyl [1-({3-[3-(4-chlorophenyl)-1-{[1-(3-chloropyridin-2-yl)-1H-1,2,4-triazol-3-yl]methyl}-5-oxo-1,5-dihydro-4H-1,2,4-triazol-4-yl]-1,1,1-trifluoropropan-2-yl}carbamoyl)cyclobutyl]-carbamate]
12 | 0.0063 | 0.213 | 33.9 | O=C(NC(Cn1c(-c2ccc(Cl)cc2)nn(Cc2ncn(-c3ncccc3Cl)n2)c1=O)C(F)(F)F)C1CCS(=O)(=O)C1 (centres unmarked) [Example 30, N-{3-[3-(4-Chlorophenyl)-1-{[1-(3-chloropyridin-2-yl)-1H-1,2,4-triazol-3-yl]methyl}-5-oxo-1,5-dihydro-4H-1,2,4-triazol-4-yl]-1,1,1-trifluoropropan-2-yl}tetrahydrothiophene-3-carboxamide 1,1-dioxide]
13 | 0.0014 | 0.0573 | 40.9 | O=C(N[C@@H](Cn1c(-c2ccc(Cl)cc2)nn(Cc2ncn(-c3ncccc3Cl)n2)c1=O)C(F)(F)F)C1(C(F)(F)F)CC1 [Example 43]
14 | 0.00185 | 0.05 | 27.0 | O=C(NC(Cn1c(-c2ccc(Cl)cc2)nn(Cc2ncn(-c3ncccc3Cl)n2)c1=O)C(F)(F)F)C1CCCN1 (centres unmarked) [Example 47, N-{3-[3-(4-Chlorophenyl)-1-{[1-(3-chloropyridin-2-yl)-1H-1,2,4-triazol-3-yl]methyl}-5-oxo-1,5-dihydro-4H-1,2,4-triazol-4-yl]-1,1,1-trifluoropropan-2-yl}-prolinamide]
15 | 0.0032 | 0.15 | 46.9 | O=C(NC(Cn1c(-c2ccc(Cl)cc2)nn(Cc2ncn(-c3ncccc3Cl)n2)c1=O)C(F)(F)F)[C@@H]1CC(C(F)(F)F)CN1 (some centres unmarked) [Example 50]
16 | 0.0029 | 0.167 | 57.6 | O=C1NCCC1C(=O)NC(Cn1c(-c2ccc(Cl)cc2)nn(Cc2ncn(-c3ncccc3Cl)n2)c1=O)C(F)(F)F (centres unmarked) [Example 51, N-{3-[3-(4-Chlorophenyl)-1-{[1-(3-chloropyridin-2-yl)-1H-1,2,4-triazol-3-yl]methyl}-5-oxo-1,5-dihydro-4H-1,2,4-triazol-4-yl]-1,1,1-trifluoropropan-2-yl}-2-oxopyrrolidine-3-carboxamide]
17 | 0.0016 | 0.038 | 23.8 | O=C(NC(Cn1c(-c2ccc(Cl)cc2)nn(Cc2ncn(-c3ncccc3Cl)n2)c1=O)C(F)(F)F)C1CC(F)(F)CN1 (centres unmarked) [Example 53, N-{3-[3-(4-Chlorophenyl)-1-{[1-(3-chloropyridin-2-yl)-1H-1,2,4-triazol-3-yl]methyl}-5-oxo-1,5-dihydro-4H-1,2,4-triazol-4-yl]-1,1,1-trifluoropropan-2-yl}-4,4-difluoro-prolinamide]
18 | 0.0039 | 0.165 | 42.3 | CC(C)(C)OC(=O)N1CC(F)(F)C1C(=O)NC(Cn1c(-c2ccc(Cl)cc2)nn(Cc2ncn(-c3ncccc3Cl)n2)c1=O)C(F)(F)F (centres unmarked) [Example 54, tert-Butyl 2-({3-[3-(4-chlorophenyl)-1-{[1-(3-chloropyridin-2-yl)-1H-1,2,4-triazol-3-yl]methyl}-5-oxo-1,5-dihydro-4H-1,2,4-triazol-4-yl]-1,1,1-trifluoropropan-2-yl}carbamoyl)-3,3-difluoro-azetidine-1-carboxylate]
19 | 0.00195 | 0.106 | 54.4 | O=C(NC(Cn1c(-c2ccc(Cl)cc2)nn(Cc2ncn(-c3ncccc3Cl)n2)c1=O)C(F)(F)F)C1NCC1(F)F (centres unmarked) [Example 55, N-{3-[3-(4-Chlorophenyl)-1-{[1-(3-chloropyridin-2-yl)-1H-1,2,4-triazol-3-yl]methyl}-5-oxo-1,5-dihydro-4H-1,2,4-triazol-4-yl]-1,1,1-trifluoropropan-2-yl}-3,3-difluoroazetidine-2-carboxamide]
20 | 0.0081 | 1.03 | 126.8 | CC(C)(C)OC(=O)N1CCC1C(=O)NC(Cn1c(-c2ccc(Cl)cc2)nn(Cc2ncn(-c3ncccc3Cl)n2)c1=O)C(F)(F)F (centres unmarked) [Example 56, tert-Butyl 2-({3-[3-(4-chlorophenyl)-1-{[1-(3-chloropyridin-2-yl)-1H-1,2,4-triazol-3-yl]methyl}-5-oxo-1,5-dihydro-4H-1,2,4-triazol-4-yl]-1,1,1-trifluoropropan-2-yl}carbamoyl)azetidine-1-carboxylate]
21 | 0.0315 | 1.98 | 62.8 | O=C(NC(Cn1c(-c2ccc(Cl)cc2)nn(Cc2ncn(-c3ncccc3Cl)n2)c1=O)C(F)(F)F)C1CCN1 (centres unmarked) [Example 57, N-{3-[3-(4-Chlorophenyl)-1-{[1-(3-chloropyridin-2-yl)-1H-1,2,4-triazol-3-yl]methyl}-5-oxo-1,5-dihydro-4H-1,2,4-triazol-4-yl]-1,1,1-trifluoropropan-2-yl}azetidine-2-carboxamide]
22 | 0.0054 | 0.245 | 45.4 | O=C(NC(Cn1c(-c2ccc(Cl)cc2)nn(Cc2ncn(-c3ncccc3C(F)(F)F)n2)c1=O)C(F)(F)F)C1CC1(F)F (centres unmarked) [Example 66, N-{3-[3-(4-Chlorophenyl)-5-oxo-1-({1-[3-(trifluoromethyl)pyridin-2-yl]-1H-1,2,4-triazol-3-yl}methyl)-1,5-dihydro-4H-1,2,4-triazol-4-yl]-1,1,1-trifluoropropan-2-yl}-2,2-difluorocyclopropane-1-carboxamide]
